Experiments:
[1] = tested on: APP/PS1 Tg mice; experiment: GA vaccination of APP/PS1 Tg mice: hippocampal histology (plaques, microglia, neurons, neurogenesis); format: in vivo, mouse
Description: (xlviii) Glatiramer acetate vaccination. Each mouse was subcutaneously injected five times with a total of 100 μg of glatiramer acetate (GA (TV-5010), MW 13.5-18.5 kDa, average 16 kDa, Teva Pharmaceutical Industries Ltd., Petach Tikva, Israel), emulsified in 200 μl PBS×1, from experimental day 0 until day 24, twice during the first week and once a week thereafter.
(l) Administration of BrdU and tissue preparation. BrdU was dissolved by sonication in PBS and injected i.p. into each mouse (50 mg/kg body weight; 1.25 mg BrdU in 200 μl PBS×1). Starting from experimental day 22 after the first GA vaccination, BrdU was injected i.p. twice daily, every 12 h for 2.5 days, to label proliferating cells. Three weeks after the first BrdU injection the mice were deeply anesthetized and perfused transcardially, first with PBS and then with 4% paraformaldehyde. The whole brain was removed, postfixed overnight, and then equilibrated in phosphate-buffered 30% sucrose. Free-floating 30-μm sections were collected on a freezing microtome (Leica SM2000R) and stored at 4° C. prior to immunohistochemistry.
For immunohistochemistry, tissue sections were treated with a permeabilization/blocking solution containing 10% FCS, 2% bovine serum albumin, 1% glycine, and 0.05% Triton X-100 (Sigma-Aldrich, St. Louis). Tissue sections were stained overnight at 4° C. with specified combinations of the following primary antibodies: rat anti-BrdU (1:200; Oxford Biotechnology, Kidlington, Oxfordshire, UK), goat anti-DCX [doublecortin] (1:400; Santa Cruz Biotechnology), and mouse anti-NeuN [neuronal nuclear protein] (1:200; Chemicon, Temecula, Calif.). Secondary antibodies were FITC-conjugated donkey anti-goat, Cy-3-conjugated donkey anti-mouse, and Cy-3- or Cy-5-conjugated donkey anti-rat (1:200; Jackson ImmunoResearch, West Grove, Pa.). For labeling of microglia we used either CD11b (MAC1; 1:50; BD-Pharmingen) or FITC-conjugated Bandeiraea simplicifolia isolectin B4 (IB4, 1:50; Sigma-Aldrich, Rehovot). To detect expression of cell-surface MHC-II proteins we used anti-MHC-II Abs (rat, clone IBL-5/22; 1:50; Chemicon, Temecula, Calif.). To detect expression of human Aβ we used anti-Aβ (human amino-acid residues 1-17) (mouse, clone 6E10, Chemicon, Temecula, Calif.). Expression of IGF-I was detected by goat anti-IGF-I Abs (1:20; R&D Systems). Expression of TNF-α was detected by goat anti-TNF-α Abs (1:100; R&D Systems). T cells were detected with anti-CD3 polyclonal Abs (rabbit, 1:100; DakoCytomation, Calif.). Propidium iodide (1 μg/ml; Molecular Probes, Invitrogen, Carlsbad, Calif.) was used for nuclear staining.
For in-vivo experiments, the number of Aβ^+ plaques and CD11b^+/IB-4^+ microglia in the hippocampus were counted at 300-μm intervals from 6-8 coronal sections (30 μm) from each mouse. Neurogenesis in the DG was evaluated by counting of premature neurons (DCX^+), proliferating cells (BrdU^+), and newly formed mature neurons (BrdU^+/NeuN^+) in six coronal sections (30 μm) from each mouse. Specificity of BrdU^+/NeuN^+ co-expression was assayed using the confocal microscope (LSM 510) in optical sections at 1-μm intervals/. Cell counts, numbers of Aβ^+ plaques, plaque areas, and intensity of NeuN staining per unit area in the DG were evaluated automatically using Image-Pro Plus 4.5 software (Media Cybernetics).

[2] = tested on: APP/PS1 Tg mice; experiment: GA vaccination of APP/PS1 Tg mice: Morris water maze; format: in vivo, mouse; settings: five weeks after first GA injection, vs untreated Tg mice

## glatiramer acetate [GA]
[1]; 6 weeks later, vs untreated Tg mice
  number of Aβ plaques in hippocampus: significantly fewer plaques
[1]; compared to non-Tg littermates
  newly formed mature neurons (BrdU^+/NeuN^+): similar
[1]; relative to non-Tg littermates
  DCX^+ cells in dentate gyrus: slightly but significantly more
[1]; vs untreated Tg mice
  BrdU^+ cells in dentate gyrus: significantly more BrdU^+ cells
  CD11b^+ microglia: significantly fewer CD11b^+ microglia
  area occupied by the plaques: significantly smaller
  staining for NeuN: significantly more intense staining for NeuN
[2]
  MWM performance (spatial learning/memory): superior to that of the untreated Tg mice

From patent publication US20090010873A1, “Methods of Cell Therapy, Neurogenesis and Oligodendrogenesis” (YEDA RESEARCH AND DEVELOPMENT CO. LTD., priority 2004, published 2009)
